Patent US20250064778A1, “GRANULES COMPRISING PROGERININ, AND SACHETS USING SAME” (PRG S&TECH INC., priority 2022, published 2025)

What was measured:
[1] = Excipient compatibility of progerinin; type: physicochemical; conditions: mixed with HPMC E3, TPGS and potassium sorbate 1:10, 40° C./75% RH, 2 weeks
[2] = system: progeria-induced animal model; conditions: cited from earlier work
progerin = conditions: cited from earlier work
[3] = Stability of spray-dried solid dispersions under storage for 2 weeks; type: physicochemical; conditions: for Appearance / HPLC results Purity / XRPD: open
[4] = cited from earlier work

## CC1(C)Oc2cc3oc(=O)ccc3cc2C[C@@H]1OC/C=C/c1ccccc1 [progerinin, (7S)-(+)-8,8-dimethyl-7-(3-phenylallyloxy)-7,8-dihydro-6H-pyrano[3,2-g]chromen-2-one]
[1]
  compatibility with excipients (effect on the drug): had no effect on the drug
[2]
  survival period: prolonging a survival period
progerin
  suppressing progerin expression: excellent effects of suppressing progerin expression
[3]; 25° C./60% RH, after 1 week
  Appearance: White
  HPLC results Purity: 99.85%
  XRPD: Unchanged
[3]; 25° C./60% RH, after 2 weeks
  HPLC results Purity: 99.85%
  XRPD: Unchanged
[3]; 40° C./75% RH, after 1 week
  Appearance: White
  HPLC results Purity: 99.85%
  XRPD: Unchanged
[3]; 40° C./75% RH, after 2 weeks
  HPLC results Purity: 99.85%
  XRPD: Unchanged
[3]; initial
  Initial purity: 99.85%
[4]; BCS criteria
  solubility in aqueous media: low solubility
[4]
  solubility in water: close to zero
